Experiment [1] deals with T1, hTAS1R2/hTAS1R3 (Homo sapiens, UniProt Q7RTX0+Q8TE23).
T1 construct: expressed in transfected cells; host or cells: HEK293T cells stably expressing G16Gust44
T1 sequence (Q8TE23 20-839): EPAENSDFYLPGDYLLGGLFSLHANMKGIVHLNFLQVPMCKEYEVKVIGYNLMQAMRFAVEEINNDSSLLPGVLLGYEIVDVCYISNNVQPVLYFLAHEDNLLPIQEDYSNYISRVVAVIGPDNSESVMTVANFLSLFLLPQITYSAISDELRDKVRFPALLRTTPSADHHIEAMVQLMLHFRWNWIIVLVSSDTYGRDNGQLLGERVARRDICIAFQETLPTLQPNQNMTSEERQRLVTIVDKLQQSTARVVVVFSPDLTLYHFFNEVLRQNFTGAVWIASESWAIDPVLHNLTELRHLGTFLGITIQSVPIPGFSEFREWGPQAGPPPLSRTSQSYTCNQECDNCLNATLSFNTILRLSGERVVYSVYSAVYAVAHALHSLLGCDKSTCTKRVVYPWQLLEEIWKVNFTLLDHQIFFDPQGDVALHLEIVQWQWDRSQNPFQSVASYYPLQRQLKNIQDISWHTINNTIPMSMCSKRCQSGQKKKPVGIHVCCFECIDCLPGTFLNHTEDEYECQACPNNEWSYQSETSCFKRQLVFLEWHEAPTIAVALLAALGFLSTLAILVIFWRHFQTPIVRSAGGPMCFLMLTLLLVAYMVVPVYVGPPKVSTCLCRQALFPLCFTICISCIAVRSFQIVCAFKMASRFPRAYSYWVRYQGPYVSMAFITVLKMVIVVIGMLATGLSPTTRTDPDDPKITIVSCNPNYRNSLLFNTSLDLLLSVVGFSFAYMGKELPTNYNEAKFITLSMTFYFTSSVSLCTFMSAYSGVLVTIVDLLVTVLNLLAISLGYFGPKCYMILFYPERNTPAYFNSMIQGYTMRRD
T1 sequence (Q7RTX0 21-852): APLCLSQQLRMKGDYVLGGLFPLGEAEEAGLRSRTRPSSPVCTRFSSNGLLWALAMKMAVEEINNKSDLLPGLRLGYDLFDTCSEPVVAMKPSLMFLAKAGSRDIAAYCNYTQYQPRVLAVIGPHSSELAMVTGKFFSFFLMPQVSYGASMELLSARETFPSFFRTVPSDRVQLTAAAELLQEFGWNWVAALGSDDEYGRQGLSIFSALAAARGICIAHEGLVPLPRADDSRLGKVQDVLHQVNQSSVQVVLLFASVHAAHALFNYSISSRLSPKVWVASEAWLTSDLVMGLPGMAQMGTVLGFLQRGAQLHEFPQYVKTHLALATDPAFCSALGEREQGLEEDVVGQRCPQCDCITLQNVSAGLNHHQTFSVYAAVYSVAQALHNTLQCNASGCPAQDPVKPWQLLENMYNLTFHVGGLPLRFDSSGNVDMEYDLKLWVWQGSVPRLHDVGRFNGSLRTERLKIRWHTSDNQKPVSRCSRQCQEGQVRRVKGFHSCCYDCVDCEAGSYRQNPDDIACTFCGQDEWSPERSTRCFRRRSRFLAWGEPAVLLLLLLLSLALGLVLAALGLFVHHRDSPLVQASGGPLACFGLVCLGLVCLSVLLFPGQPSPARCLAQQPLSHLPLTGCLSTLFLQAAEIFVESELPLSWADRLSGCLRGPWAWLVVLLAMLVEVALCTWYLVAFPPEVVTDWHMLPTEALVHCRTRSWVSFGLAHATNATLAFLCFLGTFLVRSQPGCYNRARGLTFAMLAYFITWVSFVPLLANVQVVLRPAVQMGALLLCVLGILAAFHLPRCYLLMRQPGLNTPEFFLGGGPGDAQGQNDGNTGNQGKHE
The experiment is described as follows: Concentration-response curves of sweeteners in the presence of different lactisole concentrations. Format: cell-based. Particulars: for increase of EC50 value by lactisole: presence vs absence of lactisole; for Hill slope: constant over tested lactisole concentrations.

The target of experiment [2] is T1, hTAS1R2/hTAS1R3. The experiment in a line: Calcium response (FLIPR) of HEK293T-G16Gust44 cells, wild type receptor. The experiment is classed as cell-based. Particulars: for EC50 / Emax: wt receptor; for EC50: average ± SD, at least three experiments; for Emax: read-out: maximal signal (% of wt). From the text: In order to elucidate the putative binding site for NHDC, we cotransfected mixtures of plasmid DNAs for the rat and human TAS1R2 and TAS1R3 receptor subunits in HEK293T cells stably expressing the chimeric G-protein G16Gust44 and measured cellular calcium responses by fluorometry following bath application of various sweet tasting compounds. […].
The cDNAs for TAS1Rs tagged at the C-terminus with the herpes simplex virus glycoprotein D (HSV) were transiently transfected into HEK293T cells stably expressing the chimeric G-protein subunit G16Gust44 [44] using Lipofectamine 2000 (Invitrogen, Carlsbad, CA) according to the manufacturer's protocol. 3–4 hours after transfection, DMEM was replaced by low-glucose DMEM supplemented with GlutaMAX and 10% dialyzed FBS (Invitrogen, Carlsbad, CA). 24 h post transfection, cells were loaded for 1 h with the calcium sensitive dye Fluo4-AM (2 μg/ml in DMEM, Molecular Probes, Carlsbad, CA). Cells were washed 3x in solution C1 (130 mM NaCl, 5 mM KCl, 10 mM Hepes, 2 mM CaCl2, and 5 mM Glucose, pH 7,4). We monitored calcium mobilization following receptor stimulation with sweet tastants by an automated fluorometric imaging plate reader (FLIPR, Molecular Devices, Sunnyvale, CA). Compounds used as stimuli (Sigma-Aldrich, St. Louis, MO; Merck, Whitehouse Station, NJ) were dissolved in C1 solution. All data were collected from at least three independent experiments carried out in duplicate. The obtained calcium signals were corrected for the response of mock transfected cells and normalized to the fluorescence of cells prior to the application of the stimulus using ΔF/F = (F-F0)/F0. […]

Each structure is given as a SMILES string. Where a SMILES comes first, the peptide text is derived from it.

Take `COc1ccc(CCC(=O)c2c(O)cc(O[C@@H]3O[C@H](CO)[C@@H](O)[C@H](O)[C@H]3O[C@@H]3O[C@@H](C)[C@H](O)[C@@H](O)[C@H]3O)cc2O)cc1O` [NHDC, neohesperidin dihydrochalcone]: the EC50 – broadly, the concentration that produces a half-maximal response – at hTAS1R2/hTAS1R3 [1] (0.0 μM lactisole) is 0.2 ± 0.1 mM; on hTAS1R2/hTAS1R3 [2], 100 ± 60 µM. Besides, the Hill coefficient – broadly, the slope factor of the fitted curve – came out at 0.8 at hTAS1R2/hTAS1R3 [1] (0.0 μM lactisole), 1.2 at hTAS1R2/hTAS1R3 [1] (50 μM lactisole) and 1.5 on hTAS1R2/hTAS1R3 [1] (100 μM lactisole). For the same compound, the “increase of EC50 value by lactisole” value on hTAS1R2/hTAS1R3 [1] is given as “~ fourfold”. In addition, the receptor activation entry on hTAS1R2/hTAS1R3 [2] (human sweet taste receptor) is reported as “activates”. For the same compound, the Emax on hTAS1R2/hTAS1R3 [2] turned out to be 100%.
Consider `CC1=CC(=O)NS(=O)(=O)O1` [acesulfame K], for which the 50% effective concentration (EC50) on hTAS1R2/hTAS1R3 [1] (0.0 μM lactisole) amounted to 0.12 ± 0.04 mM. Moreover, the Hill slope on hTAS1R2/hTAS1R3 [1] is given as ~ 2.
Take `COC(=O)[C@H](Cc1ccccc1)NC(=O)[C@@H](N)CC(=O)O` [aspartame] (HELM PEPTIDE1{D.F.[CO[*:1]]}$$$$V2.0): the 50% effective concentration (EC50) on hTAS1R2/hTAS1R3 [1] (0.0 μM lactisole) turned out to be 0.5 ± 0.1 mM. In addition, at hTAS1R2/hTAS1R3 [1], the Hill slope is given as ~ 2. At hTAS1R2/hTAS1R3 [2], the EC50 stood at 1300 ± 100 µM and the Emax was 100%.
Regarding `O=S(=O)(O)NC1CCCCC1` [cyclamate], the concentration giving a half-maximal response (EC50) came out at 2.2 ± 0.3 mM at hTAS1R2/hTAS1R3 [1] (0.0 μM lactisole) and 1900 ± 100 µM at hTAS1R2/hTAS1R3 [2]. In addition, the Hill coefficient at hTAS1R2/hTAS1R3 [1] (50 μM lactisole) is listed as 2.5. At hTAS1R2/hTAS1R3 [1], the “increase of EC50 value by lactisole” value is reported as “~ fourfold”.

For the origin of these results see PMC2099433, “The binding site for neohesperidin dihydrochalcone at the human sweet taste receptor” (BMC Structural Biology, 2007).
